Assay results as given in patent US20240115496A1, “A COMPOUND DRY POWDER INHALANT AND USE THEREOF” (TIANJIN UNIVERSITY OF TRADITIONAL CHINESE MEDICINE, priority 2021, published 2024).

What was measured:
[1] = Particle size distribution test, laser particle size analyzer, dry dispersion; assay type: physicochemical
Method: The particle size distribution of DPI dry powder was measured by dry dispersion method using laser particle size analyzer, and Dv10, Dv50, Dv90, VMD (Volume median diameter) and SMD (Sauter mean diameter) were determined, respectively.

[2] = In vivo pharmacokinetics, plasma (UPLC-MS/MS); set-up: species or system rat; conditions: for half-life: read-out: HLz (biological half-life) (converted); for MRT last: read-out: MRTlast (mean retention time); for concentration at 2 min / concentration at 10 min / concentration at 15 min / concentration at 30 min / concentration at 60 min / concentration at 120 min / concentration at 240 min / concentration at 360 min / concentration at 4 min: read-out: Blood concentration of BA; for concentration at 4 min: Sprague-Dawley (SD)
Method: (§1) SPF-grade healthy SD male rats, body weight 180-220 g, purchased from SPF (Beijing) Biotechnology Co., Ltd (Certificate No. SCXK (Beijing) 2019-0010), were conventionally reared under (23±2)° C., humidity: (50±10)%. This study was conducted with the approval of the Animal Experiment Center of Tianjin University of Traditional Chinese Medicine.
(§2) 108 SPF-grade SD male rats were randomly divided into tail intravenous injection group and pulmonary administration group, with 9 time points of 2 min, 4 min, 10 min, 15 min, 30 min, 1 h, 2 h, 4 h and 6 h per group, 6 rats per time point per group. The rats were fasted for 12 h before the experiment, with water provided. The rats were weighed (to calculate the dose) and numbered, and both groups were intraperitoneally injected with 10% chloral hydrate at a dose of 2 mL/kg. Group 1 was administered BA/AH-DPI saline solution by tail intravenous injection at a dose of 9 mg/kg. Group 2 was administered 3 mg of BA/AH-DPI fine powder at the same dose by spray administration with a DP-4 tracheal insufflator (1.5 mL of air was pushed each time, 3-4 times consecutively). Blood was sampled from the abdominal aorta of the rats in both groups at the above time points after drug administration, and the rats were executed. The obtained whole blood was placed in a centrifuge tube with sodium heparin, centrifuged at 4000 r/min for 10 min, and the upper layer of plasma was separated and stored a refrigerator at −80° C. After blood collection, the thoracic cavity was quickly opened and the lungs of the rats were isolated. The small amount of floating blood on the surface of the lung tissue was washed with saline in an ice bath. The surface of the lung tissue was blotted with filter paper. The trachea was cut off, wrapped in tin foil and placed in a 10 mL centrifuge tube. The lung was weighed precisely, and stored in a refrigerator at −80° C.
(§3) 100 μL of the plasma sample or lung tissue supernatant was precisely absorbed, and 200 μL (100 ng/mL) of methanol solution containing the internal standard was added. The mixture was vortexed and mixed for 3 min, and centrifuged at 12000 r/min for 10 min to obtain the supernatant as the finished sample. The contents of BA and AH were determined by UPLC-MS/MS method.
(§4) Electrospray ion source (ESI source); scan mode: positive (ESI+) detection; detection mode: multi-reactive ion monitoring (MRM). Electrospray voltage: 4 kV; atomization gas: N2; spray gas flow rate (Gas1): 15 psi; ion source temperature: 300° C.
(§5) Meaning of pharmacokinetic parameters: HLz was the biological half-life, i.e., the time required for the amount or blood concentration of the drug in the body to decrease by half; Tmax was the time to peak, i.e., the time required to reach the peak concentration of the drug after administration. Cmax was the peak drug concentration, i.e., the highest blood concentration that occurred after administration of the drug. AUC was the area enclosed by the blood drug concentration curve against the time axis. Vz/F was the apparent volume of distribution, the ratio constant of the amount of drug in the body to the blood concentration when the drug reached dynamic equilibrium in the body. CL/F was the clearance, i.e., the number of apparent volume of distribution of the drug removed from the body per unit time. AUMC was the first order moment of the drug-time curve, i.e. the area under the curse of the product of time and blood concentration versus time. MRTlast was the mean retention time, i.e., the average of the residence time of drug molecules in the body.

[3] = In vivo pharmacokinetics, lung tissue homogenate (UPLC-MS/MS); set-up: species or system rat; conditions: for CL/F (clearance) / Cmax / Tmax / half-life / MRT last: BA in rat lung tissue; for concentration at 2 min / concentration at 4 min / concentration at 10 min / concentration at 15 min / concentration at 30 min / concentration at 60 min / concentration at 120 min / concentration at 240 min / concentration at 360 min / Cmax / Tmax / half-life / MRT last: male, Sprague-Dawley (SD); for concentration at 2 min / concentration at 4 min / concentration at 10 min / concentration at 15 min / concentration at 30 min / concentration at 60 min / concentration at 120 min / concentration at 240 min / concentration at 360 min: rat lung tissue homogenate, read-out: Drug concentration of BA in lung tissue; for Cmax / Tmax / half-life / MRT last: lung tissue (homogenate supernatant); for half-life: read-out: HLz (biological half-life) (converted); for MRT last: read-out: MRTlast (mean retention time)
Method: as §1, §2
The lung tissues were added to saline in a weight to volume ratio of 1:4 (g:mL). A homogenate was obtained by beating, dispersing and evenly grinding with a homogenizer under an ice water bath, and centrifuged at 6500 r/min for 20 min to obtain the supernatant of the lung tissue homogenate.
as §3, §4, §5

[4] = male, SD, inhaled or intranasal, BA in rat plasma, pulmonary administration group, BA/AH-DPI 9 mg/kg
[5] = male, SD, inhaled, rat plasma, pulmonary administration BA/AH-DPI 9 mg/kg
[6] = male, SD, BA in rat plasma, tail intravenous injection group, 9 mg/kg
[7] = male, SD, rat plasma, tail intravenous injection BA/AH-DPI saline solution 9 mg/kg
[8] = tail intravenous injection group, 9 mg/kg
[9] = inhaled, pulmonary administration BA/AH-DPI 9 mg/kg
[10] = inhaled or intranasal, pulmonary administration group, BA/AH-DPI 9 mg/kg
[11] = tail intravenous injection BA/AH-DPI saline solution 9 mg/kg

Question: With `O=C(O)[C@H]1O[C@@H](Oc2cc3oc(-c4ccccc4)cc(=O)c3c(O)c2O)[C@H](O)[C@@H](O)[C@@H]1O` [BA, baicalin] as the compound, how does the D10 [1] read?
Answer: 0.88 μm

Question: What about the D50 [1] of the same compound?
Answer: 5.18 μm

Question: And the D90 [1]?
Answer: 12.61 μm

Question: What about the “SMD (Sauter mean diameter)” value [1] of the same compound?
Answer: 2.23 μm

Question: And the “VMD (Volume median diameter)” value [1]?
Answer: 6.05 μm

Question: And the “<3 μm” value ([1]; fraction of particles)?
Answer: 31.81%

Question: What about the “<5 μm” value ([1]; fraction of particles) of the same compound?
Answer: 48.66%

Question: What about the “CL/F (clearance)” value ([2]; BA in rat plasma, tail intravenous injection group, 9 mg/kg) of the same compound?
Answer: 98.4805 ± 62.0535 mL/min/kg

Question: And the Cmax [2, 4]?
Answer: 2560 ± 351 ng/mL

Question: And the Tmax [2, 4]?
Answer: 9 ± 4.2 min

Question: And the CL/F ([2]; male, SD, inhaled or intranasal, BA in rat plasma, pulmonary administration group, BA/AH-DPI 9 mg/kg, read-out: CL/F (clearance) (converted))?
Answer: 121 mL/min/kg

Question: And the half-life [2, 4]?
Answer: 121 ± 38.4 min

Question: And the MRT last [2, 4]?
Answer: 45 ± 5.52 min

Question: And the Vd/F ([2]; male, SD, inhaled or intranasal, BA in rat plasma, pulmonary administration group, BA/AH-DPI 9 mg/kg, read-out: Vz/F (apparent volume of distribution))?
Answer: 20.9 ± 6.57 L/kg

Question: What about the bioavailability ([2]; male, SD, inhaled, rat plasma, pulmonary administration of BA/AH-DPI vs tail intravenous injection, 9 mg/kg, read-out: Absolute bioavailability) of the same compound?
Answer: 60.7%

Question: What about the concentration at 2 min [2, 5] of the same compound?
Answer: 690 ± 438 ng/mL

Question: What about the concentration at 10 min [2, 5] of the same compound?
Answer: 2320 ± 421 ng/mL

Question: And the concentration at 15 min [2, 5]?
Answer: 1470 ± 588 ng/mL

Question: And the concentration at 30 min [2, 5]?
Answer: 628 ± 95.9 ng/mL

Question: And the concentration at 60 min [2, 5]?
Answer: 289 ± 110 ng/mL

Question: And the concentration at 120 min [2, 5]?
Answer: 57.2 ± 14.2 ng/mL

Question: What about the concentration at 240 min [2, 5] of the same compound?
Answer: 27.4 ± 10.9 ng/mL

Question: And the concentration at 360 min [2, 5]?
Answer: 13.4 ± 3.68 ng/mL

Question: And the Cmax [2, 6]?
Answer: 11800 ± 6050 ng/mL

Question: And the Tmax [2, 6]?
Answer: 2.28 ± 0.6 min

Question: And the half-life [2, 6]?
Answer: 48.6 ± 36 min

Question: What about the MRT last [2, 6] of the same compound?
Answer: 14.4 ± 9.6 min

Question: What about the concentration at 2 min [2, 7] of the same compound?
Answer: 11700 ± 6170 ng/mL

Question: What about the concentration at 10 min [2, 7] of the same compound?
Answer: 933 ± 401 ng/mL

Question: What about the concentration at 15 min [2, 7] of the same compound?
Answer: 693 ± 284 ng/mL

Question: And the concentration at 30 min [2, 7]?
Answer: 338 ± 70.3 ng/mL

Question: What about the concentration at 60 min [2, 7] of the same compound?
Answer: 77 ± 46.1 ng/mL

Question: What about the concentration at 120 min [2, 7] of the same compound?
Answer: 53.7 ± 54.2 ng/mL

Question: What about the concentration at 240 min [2, 7] of the same compound?
Answer: 8.68 ± 8.46 ng/mL

Question: And the concentration at 360 min [2, 7]?
Answer: 2.64 ± 5.27 ng/mL

Question: And the concentration at 4 min ([2]; male, inhaled, rat plasma, pulmonary administration BA/AH-DPI 9 mg/kg)?
Answer: 1740 ± 962 ng/mL

Question: And the concentration at 4 min ([2]; male, rat plasma, tail intravenous injection BA/AH-DPI saline solution 9 mg/kg)?
Answer: 3060 ± 861 ng/mL

Question: What about the “Time of maximum blood concentration in plasma” value ([2]; rat, pulmonary administration of BA/AH-DPI 9 mg/kg) of the same compound?
Answer: around 9 min

Question: What about the “CL/F (clearance)” value ([3]; pulmonary administration group, BA/AH-DPI 9 mg/kg) of the same compound?
Answer: 800.14 ± 131.95 g/h/kg

Question: What about the “CL/F (clearance)” value [3, 8] of the same compound?
Answer: 29086.90 ± 13876.33 g/h/kg

Question: And the concentration at 2 min [3, 9]?
Answer: 6440 ± 1200 ng/mL

Question: What about the concentration at 4 min [3, 9] of the same compound?
Answer: 4960 ± 1130 ng/mL

Question: What about the concentration at 10 min [3, 9] of the same compound?
Answer: 3190 ± 524 ng/mL

Question: And the concentration at 15 min [3, 9]?
Answer: 1820 ± 346 ng/mL

Question: And the concentration at 30 min [3, 9]?
Answer: 1420 ± 469 ng/mL

Question: And the concentration at 60 min [3, 9]?
Answer: 705 ± 160 ng/mL

Question: What about the concentration at 120 min [3, 9] of the same compound?
Answer: 235 ± 76.2 ng/mL

Question: And the concentration at 240 min [3, 9]?
Answer: 92.2 ± 25.4 ng/mL

Question: What about the concentration at 360 min [3, 9] of the same compound?
Answer: 43.1 ± 16.9 ng/mL

Question: And the Cmax [3, 10]?
Answer: 26000 ± 4490 ng/g

Question: And the Tmax [3, 10]?
Answer: 2.64 ± 1.08 min

Question: What about the half-life [3, 10] of the same compound?
Answer: 84 ± 24 min

Question: What about the MRT last [3, 10] of the same compound?
Answer: 57 ± 5.22 min

Question: And the Cmax [3, 8]?
Answer: 341 ± 112 ng/g

Question: What about the Tmax [3, 8] of the same compound?
Answer: 1.98 min

Question: And the half-life [3, 8]?
Answer: 101 ± 44.4 min

Question: What about the MRT last [3, 8] of the same compound?
Answer: 91.2 ± 36 min

Question: And the concentration at 2 min [3, 11]?
Answer: 85.3 ± 27.9 ng/mL

Question: And the concentration at 4 min [3, 11]?
Answer: 42 ± 7.67 ng/mL

Question: What about the concentration at 10 min [3, 11] of the same compound?
Answer: 45.1 ± 13.6 ng/mL

Question: What about the concentration at 15 min [3, 11] of the same compound?
Answer: 45.8 ± 18.7 ng/mL

Question: What about the concentration at 30 min [3, 11] of the same compound?
Answer: 39.2 ± 22 ng/mL

Question: What about the concentration at 60 min [3, 11] of the same compound?
Answer: 16.3 ± 19.5 ng/mL

Question: And the concentration at 120 min [3, 11]?
Answer: 12.9 ± 10.5 ng/mL

Question: What about the concentration at 240 min [3, 11] of the same compound?
Answer: 8.37 ± 6.37 ng/mL

Question: And the concentration at 360 min [3, 11]?
Answer: 2.71 ± 3.37 ng/mL
